For one data set, the target named is T1, β-catenin (Homo sapiens, UniProt P35222).
T1 sequence (P35222 1-781): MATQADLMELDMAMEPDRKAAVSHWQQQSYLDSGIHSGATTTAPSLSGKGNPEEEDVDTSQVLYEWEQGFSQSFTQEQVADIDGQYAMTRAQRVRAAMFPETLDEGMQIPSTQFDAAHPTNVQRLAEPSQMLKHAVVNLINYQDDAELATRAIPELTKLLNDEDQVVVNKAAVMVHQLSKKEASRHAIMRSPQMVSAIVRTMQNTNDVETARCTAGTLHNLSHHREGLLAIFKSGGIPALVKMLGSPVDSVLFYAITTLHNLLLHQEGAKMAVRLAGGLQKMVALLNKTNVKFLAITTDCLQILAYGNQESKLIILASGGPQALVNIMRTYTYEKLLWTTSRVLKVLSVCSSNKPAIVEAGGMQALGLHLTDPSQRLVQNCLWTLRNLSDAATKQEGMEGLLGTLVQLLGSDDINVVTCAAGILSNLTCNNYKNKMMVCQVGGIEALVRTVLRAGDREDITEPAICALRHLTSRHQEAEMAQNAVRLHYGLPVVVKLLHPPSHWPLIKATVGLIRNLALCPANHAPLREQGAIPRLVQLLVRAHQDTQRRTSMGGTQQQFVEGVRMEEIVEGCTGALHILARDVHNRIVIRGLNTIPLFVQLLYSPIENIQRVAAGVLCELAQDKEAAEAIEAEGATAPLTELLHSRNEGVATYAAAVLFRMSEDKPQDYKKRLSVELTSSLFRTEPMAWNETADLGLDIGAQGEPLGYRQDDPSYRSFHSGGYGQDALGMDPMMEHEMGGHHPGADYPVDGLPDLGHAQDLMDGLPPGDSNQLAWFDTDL
Briefly: KD50 measurement using competitive fluorescence polarization (FP) with labelled TCF4. Type of data set: binding. The note with it: fluorescence polarization, β-catenin; for Kd: read-out: β-Cat FP KD. The method in brief:
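Labelled TCF4 (5 nM) mixed with 100 nM β-catenin at room temperature; inhibitor added as serial dilutions from 10 nM to 30 uM. Polarization read at excitation 470 nm/emission 520 nm; binding displacement lowers polarization. Three independent runs.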
For orientation: Polarisation of emitted light reports the rotation of a fluorescent probe.

In data set [1] the target is Wnt-responsive promoter (TCF/LEF). Briefly: Wnt-dependent luciferase reporter assay. The class given is cell-based, murine. The method in brief: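 EC50 (uM) derived from inhibition of luminescence in Wnt3a-stimulated murine 3T3 cells expressing luciferase under a TCF/LEF promoter, with peptides added across a concentration range and vehicle as control.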
In general terms: Reporter assays use an easily measured gene product as a stand-in for the process of interest.

For data set [2] the following is noted: % Viability non-Wnt responsive cells.

The record followed here is US12441768B2, “Compositions and methods for treating endometriosis” (EndoMet Biosciences, Inc., priority 2018, dated 2025).

Where a SMILES comes first, the peptide text is derived from it. The star is where a group is joined. Bn = c1ccc(C*)cc1 A value given as a limit tells only on which side of the number the result lay.

Usually Kd stands for the concentration at which binding is half-saturated. The term EC50 denotes the concentration giving half of the maximal effect. The low end stands for an effect from little substance, the high end for a need for much substance. Broadly, the viability is a read-out of living cells in per cent, often relative to untreated cells. For `CC[C@H](C)[C@H](NC(=O)[C@H](CC(C)C)NC(=O)[C@H](Cc1ccccc1)NC(=O)[C@H](Cc1c[nH]c2ccccc12)NC(=O)[C@H](CCSC)NC(=O)[C@H](CCCNC(=N)N)NC(=O)[C@H](CO)NC(=O)[C@@H](N)CCSC)C(=O)N[C@@H](CO)C(=O)N[C@@H](COCc1ccccc1)C(=O)N[C@@H](Cc1c[nH]c2ccccc12)C(=O)O` [compound 106] (H-MSRMWFLISS(Bn)W-OH), on β-catenin, the “β-Cat FP Hill slope” value is 0.7 and the Kd lay in the range of 1 to 10 µM. Besides, the EC50 in data set [1] was in the range of 15 to 22.5 µM. For the same compound, the viability in data set [2] stood at 105%.
The matching figures for `CC[C@H](C)[C@@H]1NC(=O)[C@H](CC(C)C)NC(=O)[C@H](Cc2ccccc2)NC(=O)[C@H](Cc2c[nH]c3ccccc23)NC(=O)[C@H](CCSC)NC(=O)CCCCCNC(=O)C[C@@H](C(=O)O)NC(=O)[C@H](Cc2c[nH]c3ccccc23)NC(=O)[C@H](Cc2ccccc2)NC(=O)[C@H](CS)NC1=O` [compound 189] (HELM PEPTIDE1{[O=C(CCCCCN[*:1])[*:2]].M.W.F.L.I.C.F.W.D}$PEPTIDE1,PEPTIDE1,1:R1-10:R3$$$V2.0): 1.69, 0.4 to 1 µM, less than 7.5 µM and 99.5%.
The like results for `CC[C@H](C)[C@H](NC(=O)[C@H](CC(C)C)NC(=O)[C@H](Cc1ccccc1)NC(=O)[C@H](Cc1c[nH]c2ccccc12)NC(=O)[C@@H](N)CCSC)C(=O)N[C@@H](CO)C(=O)N[C@@H](Cc1ccccc1)C(=O)N[C@@H](Cc1c[nH]c2ccccc12)C(=O)N[C@@H](CCC(=O)O)C(=O)NCC(=O)O` [compound 47] (H-MWFLISFWEG-OH) were, in that order, 2.29, 0.4 to 1 µM, less than 7.5 µM and 103%.
`CCOC[C@H](NC(=O)[C@H](CO)NC(=O)[C@@H](NC(=O)[C@H](CC(C)C)NC(=O)[C@H](Cc1ccccc1)NC(=O)[C@H](Cc1c[nH]c2ccccc12)NC(=O)[C@H](CCSC)NC(=O)[C@H](CCCNC(=N)N)NC(=O)[C@H](CO)NC(=O)[C@@H](N)CCSC)[C@@H](C)CC)C(=O)N[C@@H](Cc1c[nH]c2ccccc12)C(=O)O` [compound 105] (H-MSRMWFLISS(Et)W-OH): on β-catenin, the “β-Cat FP Hill slope” value is listed as 0.7 and the Kd is 1 to 10 µM. Besides, the concentration for a half-maximal effect (EC50) in data set [1] fell in the range of 7.5 to 15 µM. In addition, the viability in data set [2] stood at 96.8%.
Turning to `CC[C@H](C)[C@H](NC(=O)[C@H](CC(C)C)NC(=O)[C@@H](NC(=O)[C@H](Cc1c[nH]c2ccccc12)NC(=O)[C@H](CCSC)NC(=O)[C@@H](N)CCCNC(=N)N)[C@@H](C)CC)C(=O)N[C@@H](CS)C(=O)N[C@@H](Cc1ccccc1)C(=O)N[C@@H](Cc1c[nH]c2ccccc12)C(=O)NCC(=O)O` [compound 115] (H-RMWILICFWG-OH), at β-catenin, the “β-Cat FP Hill slope” value is listed as 0.7 and the Kd lay within 1 to 10 µM. The EC50 in data set [1] lay in the range of 15 to 22.5 µM. Moreover, in data set [2], the viability turned out to be 116%.
Take `CC[C@H](C)[C@H](NC(=O)[C@H](CC(C)C)NC(=O)[C@H](Cc1ccccc1)NC(=O)[C@H](Cc1c[nH]c2ccccc12)N(C)C(=O)[C@H](CCSC)NC(=O)[C@H](CCCNC(=N)N)NC(=O)[C@@H](NC(=O)[C@@H](N)CCSC)[C@@H](C)CC)C(=O)N[C@@H](CO)C(=O)N[C@@H](Cc1ccccc1)C(=O)N[C@@H](Cc1c[nH]c2ccccc12)C(=O)NCC(=O)O` [compound 53] (HELM PEPTIDE1{M.I.R.M.[meW].F.L.I.S.F.W.G}$$$$V2.0): the Kd at β-catenin is more than 30 µM. The compound further displayed an EC50 in data set [1] of more than 30 µM. Also, the viability in data set [2] is 103%.
`CC[C@H](C)[C@@H]1NC(=O)[C@H](CC(C)C)NC(=O)[C@H](CC2CCCCC2)NC(=O)[C@H](Cc2c[nH]c3ccccc23)NC(=O)[C@@H](N)CCCCNC(=O)C[C@@H](C(=O)O)NC(=O)[C@H](Cc2c[nH]c3ccccc23)NC(=O)[C@H](C)NC(=O)[C@H](CO)NC1=O` [compound 203] (HELM PEPTIDE1{K.W.[Cha].L.I.S.A.W.D}$PEPTIDE1,PEPTIDE1,1:R3-9:R3$$$V2.0): the Kd at β-catenin is more than 30 µM. In addition, the EC50 in data set [1] was 7.5 to 15 µM. Further, the viability in data set [2] amounted to 98%.
The like results for `CSCC[C@H](N)C(=O)N[C@@H](Cc1c[nH]c2ccccc12)C(=O)N[C@@H](Cc1ccccc1)C(=O)N[C@@H](CC(C)C)C(=O)N[C@@H](C)C(=O)N[C@@H](CO)C(=O)N[C@@H](Cc1ccccc1)C(=O)N[C@@H](Cc1c[nH]c2ccccc12)C(=O)NCC(=O)O` [compound 158] (H-MWFLASFWG-OH) were, in that order, more than 30 µM, 7.5 to 15 µM and 95.6%.
In the case of `CC[C@H](C)[C@H](NC(=O)[C@H](CC(C)C)NC(=O)[C@H](Cc1ccc(O)cc1)NC(=O)[C@H](Cc1c[nH]c2ccccc12)NC(=O)[C@H](CCSC)NC(=O)[C@H](CCCNC(=N)N)NC(=O)[C@H](CO)NC(=O)[C@@H](N)CCSC)C(=O)N[C@@H](CO)C(=O)N[C@@H](Cc1ccccc1)C(=O)N[C@@H](Cc1c[nH]c2ccccc12)C(=O)NCC(=O)O` [compound 66] (H-MSRMWYLISFWG-OH), at β-catenin, the “β-Cat FP Hill slope” value is on record as 0.7 and the Kd lay within 10 to 30 µM. This compound registered an EC50 in data set [1] of 7.5 to 15 µM. Besides, the viability in data set [2] came out at 98.6%.
As to `CC[C@H](C)[C@H](NC(=O)[C@H](Cc1c[nH]c2ccccc12)NC(=O)[C@@H](N)CCSC)C(=O)NC(C)(CC(C)C)C(=O)N[C@H](C(=O)N[C@@H](CO)C(=O)N[C@@H](Cc1ccccc1)C(=O)N[C@@H](Cc1c[nH]c2ccccc12)C(=O)NCC(=O)O)[C@@H](C)CC` (some centres unmarked) [compound 138] (HELM PEPTIDE1{M.W.I.[CC(C)CC(C)(N[*:1])C(=O)[*:2]].I.S.F.W.G}$$$$V2.0), at β-catenin, the Kd is more than 30 µM. In data set [1], this compound registered an EC50 of more than 30 µM. Further, the viability in data set [2] worked out at 106%.
For the compound `CC[C@H](C)[C@H](NC(=O)[C@H](CC(C)C)NC(=O)[C@H](Cc1ccccc1)NC(=O)[C@H](Cc1c[nH]c2ccccc12)NC(=O)[C@H](CCSC)NC(=O)[C@H](CCCNC(=N)N)NC(=O)[C@H](CCC(N)=O)NC(=O)[C@@H](N)CCSC)C(=O)N[C@@H](CO)C(=O)N[C@@H](Cc1ccccc1)C(=O)N[C@@H](Cc1c[nH]c2ccccc12)C(N)=O` [compound 74] (H-MQRMWFLISFW-NH2), the Kd on β-catenin is more than 30 µM. In addition, in data set [1], the EC50 was more than 30 µM. The viability in data set [2] is 91.2%.
Take `CC[C@H](C)[C@H](NC(=O)[C@H](CC(C)C)NC(=O)[C@@H](NC(=O)[C@H](Cc1c[nH]c2ccccc12)NC(=O)[C@H](CCSC)NC(C)=O)[C@@H](C)CC)C(=O)N[C@@H](CO)C(=O)N[C@@H](Cc1ccccc1)C(=O)N[C@@H](Cc1c[nH]c2ccccc12)C(=O)NCC(=O)OC` [compound 222] (HELM PEPTIDE1{[ac].M.W.I.L.I.S.F.W.G.[CO[*:1]]}$$$$V2.0): at β-catenin, the “β-Cat FP Hill slope” value came to 1.56 and the Kd fell in the range of 1 to 10 µM. The compound also had an EC50 in data set [1] of 7.5 to 15 µM. Moreover, the viability in data set [2] amounted to 98.2%.
Take `CC[C@H](C)[C@H](NC(=O)[C@H](C)NC(=O)[C@H](Cc1ccccc1)NC(=O)[C@H](Cc1c[nH]c2ccccc12)NC(=O)[C@@H](N)CCSC)C(=O)N[C@@H](CO)C(=O)N[C@@H](Cc1ccccc1)C(=O)N[C@@H](Cc1c[nH]c2ccccc12)C(=O)NCC(=O)O` [compound 157] (H-MWFAISFWG-OH): at β-catenin, the Kd was more than 30 µM. For the same compound, the EC50 in data set [1] was less than 7.5 µM. In addition, the viability in data set [2] stood at 99.9%.
Take `CC[C@H](C)[C@H](NC(=O)[C@H](CC(C)C)NC(=O)[C@H](Cc1ccccc1)NC(=O)[C@H](Cc1c[nH]c2ccccc12)NC(=O)[C@H](CCSC)NC(=O)[C@H](CCCNC(=N)N)NC(=O)[C@H](CO)NC(=O)[C@@H](N)CCSC)C(=O)N[C@@H](CO)C(=O)N[C@@H](CO)C(=O)N[C@@H](Cc1c[nH]c2ccccc12)C(=O)NCC(=O)O` [compound 54] (H-MSRMWFLISSWG-OH): on β-catenin, the “β-Cat FP Hill slope” value was 0.7 and the Kd was in the range of 1 to 10 µM. For the same compound, the EC50 in data set [1] was 15 to 22.5 µM. Moreover, the viability in data set [2] came out at 98.3%.
As for `CC[C@H](C)[C@H](NC(=O)[C@H](CC(C)C)NC(=O)[C@H](Cc1ccccc1)NC(=O)[C@H](Cc1c[nH]c2ccccc12)NC(=O)[C@H](CCCCN)NC(=O)[C@H](CCCNC(=N)N)NC(=O)[C@H](CO)NC(=O)[C@@H](N)Cc1c[nH]c2ccccc12)C(=O)N[C@@H](CO)C(=O)N[C@@H](Cc1ccccc1)C(=O)N[C@@H](Cc1c[nH]c2ccccc12)C(N)=O` [compound 90] (H-WSRKWFLISFW-NH2), the Kd at β-catenin is more than 30 µM. The same compound had an EC50 in data set [1] of more than 30 µM. In addition, the viability in data set [2] came out at 83.3%.
